Measurements from ChEMBL document CHEMBL5532680, “Identification of a Sonically Activated Degrader of Methionine Adenosyltransferase 2A by an in Silico Approach Assisted with the Hole-Electron Analysis” (J Med Chem, 2024).
The source made the active and inactive calls. No cut-off for these calls is given here.

Columns and labels:
[1] = target: Voltage-gated inwardly rectifying potassium channel KCNH2 (Homo sapiens, UniProt Q12809); assay: Inhibition of hERG by plate based patch clamp method; format: toxicity
[2] = Toxicity in BALB/c mouse xenografted with human HCT-116 cells assessed as kidney damage at 100 mg/kg, po by H and E staining based assay; format: organism-based; details: in vivo
HCT-116 [3] = assay: Antiproliferative activity against MTAP knocked out human HCT-116 cells incubated for 5 days by MTT method; format: functional, cell-based; details: HCT-116, 120 h
[4] = Biodistribution in […] knocked out human HCT-116 cells xenografted in BALB/c mouse assessed as fluorescence intensity in kidney at 10 mg/kg, po measured after 24 hrs; format: ADME, organism-based; details: in vivo
[5] = Biodistribution in MATP knocked out human HCT-116 cells xenografted in BALB/c mouse assessed as fluorescence intensity in tumor at 10 mg/kg, po measured after 24 hrs; format: ADME, organism-based; details: in vivo
[6] = target: T1, S-adenosylmethionine synthase isoform type-2 (Homo sapiens, UniProt P31153); assay: Induction of MAT2A degradation in human HCT-116 cells assessed as degradation maximum at higher than 1 uM preincubated for 4 hrs followed by 1.0 MHz, 0.8W/cm2 ultrasound treatment for 0.5 mins by Western blotting assay relative to control; format: cell-based; details: time 240.5 min
Target sequence in this assay (P31153 whole entry, looked up, canonical isoform): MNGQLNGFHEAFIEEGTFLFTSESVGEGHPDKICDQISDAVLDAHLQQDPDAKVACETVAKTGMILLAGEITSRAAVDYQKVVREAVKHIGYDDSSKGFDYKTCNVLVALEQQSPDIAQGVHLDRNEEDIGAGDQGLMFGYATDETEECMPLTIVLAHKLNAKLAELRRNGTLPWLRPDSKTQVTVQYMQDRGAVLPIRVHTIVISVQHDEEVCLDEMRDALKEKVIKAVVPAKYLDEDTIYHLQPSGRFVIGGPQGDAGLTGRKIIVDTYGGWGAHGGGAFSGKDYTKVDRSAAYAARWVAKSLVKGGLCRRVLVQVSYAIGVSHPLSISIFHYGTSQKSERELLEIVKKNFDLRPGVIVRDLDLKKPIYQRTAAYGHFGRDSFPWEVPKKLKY

[7] = target: T1, S-adenosylmethionine synthase isoform type-2; assay: Inhibition of recombinant human MAT2A expressed in baculovirus infected Sf9 cells using L-methione as substrate preincubated for 15 mins followed by substrate addition and measured after 60 mins in presence of ATP by Kinase-Glo luminescent assay
Target sequence in this assay (P31153 whole entry, canonical isoform): as the sequence (P31153 whole entry, looked up, canonical isoform) above

HCT-116 [8] = assay: Induction of ROS generation in human HCT-116 cells at 0.001 to 1 uM incubated for 6 hrs by DCFH-DA staining based flow cytometry analysis; format: functional, cell-based; details: dose 0.001-1 µM
[9] = Tmax in ICR mouse at 10 mg/kg, po measured upto 24 hrs by LC-MS/MS analysis; format: ADME, organism-based; details: in vivo
Cytochrome P450 2C9 = Cytochrome P450 2C9 (Homo sapiens, UniProt P11712); assay: Inhibition of CYP2C9 (unknown origin); format: ADME
[10] = Toxicity in BALB/c mouse xenografted with human HCT-116 cells assessed as liver tissue rupture at 50 mg/kg, po by H and E staining based assay; format: organism-based; details: in vivo
MDR1 (P-gp) = assay: Efflux ratio of apparent permeability in MDCKII-MDR1 cells; format: ADME, cell-based, Canis lupus familiaris; details: dog, MDCK-MDR1
[11] = Toxicity in BALB/c mouse xenografted with human HCT-116 cells assessed as body weight loss at 10 mg/kg, po administered once a day followed by 4 mins sonication post 6 hrs of compound administration and measured for 3 weeks; format: organism-based; details: in vivo, 504 h
HCT-116 [12] = assay: Induction of apoptosis in MTAP knocked out human HCT-116 cells at 0.1 uM preincubated for 24 hrs followed by sonication for 4 mins by annexin V-FITC/PI staining based flow cytometry analysis relative to control; format: functional, cell-based; details: time 1444.0 min
[13] = AUC in ICR mouse at 1 mg/kg, iv measured upto 24 hrs by LC-MS/MS analysis; format: ADME, organism-based; details: in vivo
[14] = Inhibition of uridine glucuronyl transferase (unknown origin); design: species or system Homo sapiens
HCT-116 [15] = assay: Antiproliferative activity against wild type human HCT-116 cells preincubated with AG-270 followed by compound addition; format: functional, cell-based
HCT-116 [16] = assay: Antitumor activity against […] knocked out human HCT-116 cells xenografted in BALB/c mouse assessed as reduction in tumor weight at 10 mg/kg, po administered once a day followed by 4 mins sonication post 6 hrs of compound administration and measured for 3 weeks; format: functional, organism-based
[17] = Toxicity in BALB/c mouse xenografted with human HCT-116 cells assessed as change in liver cell nucleus size at 100 mg/kg, po by H and E staining based assay; format: organism-based; details: in vivo
Cytochrome P450 2C19 = Cytochrome P450 2C19 (Homo sapiens, UniProt P33261); assay: Inhibition of CYP2C19 (unknown origin); format: ADME
HCT-116 [18] = assay: Antitumor activity against […] knocked out human HCT-116 cells xenografted in BALB/c mouse assessed as tumor growth inhibition at 100 mg/kg, po administered once a day for 6 hrs and measured after 3 weeks; format: functional; details: HCT-116, 504 h, read-out: TGI
[19] = Oral bioavailability in ICR mouse at 10 mg/kg measured upto 24 hrs by LC-MS/MS analysis; format: ADME, organism-based; details: in vivo
[20] = Toxicity in BALB/c mouse xenografted with human HCT-116 cells assessed as spleen damage at 10 mg/kg, po by H and E staining based assay; format: organism-based; details: in vivo
[21] = Volume of distribution at steady state in ICR mouse at 1 mg/kg, iv measured upto 24 hrs by LC-MS/MS analysis; format: ADME, organism-based; details: in vivo, read-out: Vdss
[22] = Biodistribution in MATP knocked out human HCT-116 cells xenografted in BALB/c mouse assessed as fluorescence intensity in lung at 10 mg/kg, po measured after 24 hrs; format: ADME, organism-based; details: in vivo
HCT-116 [23] = assay: Antiproliferative activity against MTAP knocked out human HCT-116 cells incubated for 5 days by MTT method relative to control; format: functional; details: time 5 day
[24] = Toxicity in BALB/c mouse xenografted with human HCT-116 cells assessed as inflammatory cells infiltration at 50 mg/kg, po by H and E staining based assay; format: organism-based; details: in vivo
HCT-116 [25] = assay: Antitumor activity against […] knocked out human HCT-116 cells xenografted in BALB/c mouse assessed as tumor growth inhibition at 50 mg/kg, po administered once a day for 6 hrs and measured after 3 weeks; format: functional; details: HCT-116, 504 h, read-out: TGI
HCT-116 [26] = assay: Antitumor activity against […] knocked out human HCT-116 cells xenografted in BALB/c mouse assessed as tumor growth inhibition at 10 mg/kg, po administered once a day for 6 hrs and measured after 3 weeks; format: functional; details: HCT-116, 504 h, read-out: TGI
[27] = Cmax in BALB/c mouse at 10 mg/kg, po measured upto 24 hrs by LC-MS/MS analysis; format: ADME, organism-based; details: in vivo
[28] = Half-life in ICR mouse at 10 mg/kg, po measured upto 24 hrs by LC-MS/MS analysis; format: ADME, organism-based; details: in vivo
[29] = target: T1, S-adenosylmethionine synthase isoform type-2; assay: Induction of MAT2A degradation in human HCT-116 cells incubated for 4 hrs by Western blotting assay; format: cell-based
Target sequence in this assay (P31153 whole entry, looked up, canonical isoform): as above

[30] = Drug localization in human HCT-116 cells cytoplasm assessed as bright red fluorescence at 1 uM by Hoechst 33342 staining based confocal assay; format: ADME, cell-based; details: hct-116, 1 µM
[31] = Biodistribution in MATP knocked out human HCT-116 cells xenografted in BALB/c mouse assessed as fluorescence intensity in spleen at 10 mg/kg, po measured after 24 hrs; format: ADME, organism-based; details: in vivo
HCT-116 [32] = assay: Antiproliferative activity against wild type human HCT-116 cells at less than 1 uM incubated for 5 days by MTT method; format: functional, cell-based; details: time 5.0 day
HCT-116 [33] = assay: Induction of ROS generation in human HCT-116 cells assessed as fold increase at 0.1 uM preincubated for 6 hrs followed by sonication for 4 mins by DCFH-DA staining based flow cytometry analysis; format: functional; details: time 364 min, 6.067 h
HCT-116 [34] = assay: Induction of apoptosis in human HCT-116 cells assessed as increase in late apoptotic cells at 0.1 uM preincubated for 24 hrs followed by sonication for 4 mins by annexin V-FITC/PI staining based flow cytometry analysis relative to control; format: functional; details: time 1444 min, 24.07 h

Voltage-gated inwardly rectifying potassium channel KCNH2, sequence (Q12809 whole entry): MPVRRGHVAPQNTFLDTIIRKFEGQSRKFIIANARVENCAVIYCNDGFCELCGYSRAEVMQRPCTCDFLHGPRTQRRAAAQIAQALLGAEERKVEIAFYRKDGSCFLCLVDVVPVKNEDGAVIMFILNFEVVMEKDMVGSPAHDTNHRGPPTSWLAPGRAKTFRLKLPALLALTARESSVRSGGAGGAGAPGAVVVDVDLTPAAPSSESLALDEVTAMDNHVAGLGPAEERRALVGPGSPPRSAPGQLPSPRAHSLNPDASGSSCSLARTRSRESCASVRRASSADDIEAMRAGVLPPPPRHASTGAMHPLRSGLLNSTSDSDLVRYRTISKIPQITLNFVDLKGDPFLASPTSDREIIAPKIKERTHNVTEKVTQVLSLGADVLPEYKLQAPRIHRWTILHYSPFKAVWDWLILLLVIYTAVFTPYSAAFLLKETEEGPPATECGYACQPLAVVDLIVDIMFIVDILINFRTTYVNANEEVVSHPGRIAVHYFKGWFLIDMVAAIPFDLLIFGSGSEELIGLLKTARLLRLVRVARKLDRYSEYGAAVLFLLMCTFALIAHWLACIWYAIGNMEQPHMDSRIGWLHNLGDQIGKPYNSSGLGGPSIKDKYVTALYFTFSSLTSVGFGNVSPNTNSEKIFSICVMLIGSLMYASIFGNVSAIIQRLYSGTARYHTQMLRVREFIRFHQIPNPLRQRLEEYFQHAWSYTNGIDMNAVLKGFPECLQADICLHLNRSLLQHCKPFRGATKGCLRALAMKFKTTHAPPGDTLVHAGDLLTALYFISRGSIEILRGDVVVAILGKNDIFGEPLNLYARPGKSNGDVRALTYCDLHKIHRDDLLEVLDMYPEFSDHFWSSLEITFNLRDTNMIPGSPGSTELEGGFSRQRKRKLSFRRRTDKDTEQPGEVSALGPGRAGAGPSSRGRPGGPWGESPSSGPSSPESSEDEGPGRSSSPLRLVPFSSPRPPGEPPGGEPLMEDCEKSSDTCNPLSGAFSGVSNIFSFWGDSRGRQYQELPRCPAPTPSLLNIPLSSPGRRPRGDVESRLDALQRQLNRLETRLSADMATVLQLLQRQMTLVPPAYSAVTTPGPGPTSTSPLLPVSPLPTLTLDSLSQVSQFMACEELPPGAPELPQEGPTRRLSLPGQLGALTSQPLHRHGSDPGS
Cytochrome P450 2C9, sequence (P11712 whole entry): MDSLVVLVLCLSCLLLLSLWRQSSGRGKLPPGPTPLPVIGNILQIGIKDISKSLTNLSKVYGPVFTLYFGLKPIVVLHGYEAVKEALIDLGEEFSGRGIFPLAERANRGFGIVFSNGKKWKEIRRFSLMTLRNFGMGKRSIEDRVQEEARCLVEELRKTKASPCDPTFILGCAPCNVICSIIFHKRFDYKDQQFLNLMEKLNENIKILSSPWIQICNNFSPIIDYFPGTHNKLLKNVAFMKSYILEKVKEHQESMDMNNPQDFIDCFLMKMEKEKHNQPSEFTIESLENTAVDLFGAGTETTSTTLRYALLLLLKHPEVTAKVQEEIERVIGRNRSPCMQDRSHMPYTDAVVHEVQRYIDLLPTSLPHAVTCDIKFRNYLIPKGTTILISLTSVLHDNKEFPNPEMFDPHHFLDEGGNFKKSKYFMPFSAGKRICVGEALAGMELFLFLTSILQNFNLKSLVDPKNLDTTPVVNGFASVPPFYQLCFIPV
Cytochrome P450 2C19, sequence (P33261 whole entry): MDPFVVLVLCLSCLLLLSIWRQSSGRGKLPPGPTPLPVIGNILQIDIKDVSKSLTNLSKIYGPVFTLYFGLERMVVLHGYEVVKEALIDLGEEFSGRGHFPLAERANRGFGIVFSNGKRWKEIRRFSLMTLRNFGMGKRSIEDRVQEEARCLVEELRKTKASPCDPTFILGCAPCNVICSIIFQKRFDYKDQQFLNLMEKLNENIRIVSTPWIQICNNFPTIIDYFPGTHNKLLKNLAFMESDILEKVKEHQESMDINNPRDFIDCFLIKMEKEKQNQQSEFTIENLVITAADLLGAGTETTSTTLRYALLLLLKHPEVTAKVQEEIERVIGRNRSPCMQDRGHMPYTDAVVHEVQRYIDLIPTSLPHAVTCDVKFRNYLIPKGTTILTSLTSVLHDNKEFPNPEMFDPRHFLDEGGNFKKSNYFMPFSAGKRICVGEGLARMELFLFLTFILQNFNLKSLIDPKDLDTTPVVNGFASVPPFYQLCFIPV

- IC50 (HCT-116 [3]): 350 nM
- Drug uptake [4]: Not Active
- Drug uptake [5]: Active
- Emax [6]: 76%
- IC50 [7]: 61 nM
- Tmax [9]: 0.5 h
- IC50 (Cytochrome P450 2C9): 31000 nM
- efflux ratio (MDR1 (P-gp)): 0.9
- AUC [13]: 1267 ng·h/mL
- IC50 [14]: 800 nM
- IC50 (Cytochrome P450 2C19): 16000 nM
- bioavailability [19]: 77%
- Vd [21]: 3.47 L/kg
- Drug uptake [22]: Active
- Cmax [27]: 1380 ng/mL
- half-life [28]: 2.9 h
- Activity [29]: inactive
- Drug uptake [30]: Active
- Drug uptake [31]: Not Active
SMILES: CCOc1ncc2cc(-c3ccc4c(c3)N3CCCC3CO4)c(=O)n(-c3ccc(OC(F)F)cc3)c2n1 (configuration not stated)
- IC50 [1]: > 50000 nM
- Activity [2]: Non-Toxic
- Activity (HCT-116 [8]): Active
- Activity [10]: Toxic
- Activity [11]: Non-Toxic
- Activity (HCT-116 [12]): Active
- Activity (HCT-116 [15]): inactive
- Activity (HCT-116 [16]): Active
- Activity [17]: Toxic
- inhibition in vivo at 100 mg/kg (HCT-116 [18]): 96.5%
- Activity [20]: Non-Toxic
- Activity (HCT-116 [23]): 92%
- Activity [24]: Toxic
- inhibition in vivo at 50 mg/kg (HCT-116 [25]): 93.5%
- inhibition in vivo at 10 mg/kg (HCT-116 [26]): 15.6%
- Activity (HCT-116 [32]): inactive
- fold change (FC) (HCT-116 [33]): 6
- Activity (HCT-116 [34]): 9%
